Measurements reported in patent publication US8642622B2, “Piperidinyl compound as a modulator of chemokine receptor activity” (Bristol-Myers Squibb Company, priority 2010, dated 2014).

Experiments:
[1] = Human liver microsomal metabolism, Assay Conditions B; type: in vitro ADME
Protocol: Test compound is received as 20 mM in DMSO. Compound is diluted to create a 300 μM acetonitrile (ACN) solution containing 1.5% DMSO, which is then used as a 100× stock for incubation with microsomes. Each compound is tested in duplicate separately in each of three species in the Metabolic Stability-Human, Rat, Mouse assay suite or individual species in the Metabolic Stability-Dog or Metabolic Stability-Monkey suites. Compound, NADPH and liver microsome solutions are combined for incubation in three steps: • 1. 450 μL of liver microsome suspension, protein concentration of 1 mg/mL in 100 mM NaPi, pH 7.4, 6.6 mM MgCl2 buffer, are pre-warmed at 37° C. • 2. […] of 300 μM compound (98.5% CAN, 1.5% DMSO) is added to the same tube. • 3. The reaction is initiated by the addition of 50 μL of pre-warmed 5 mM NADPH solution in 100 mM NaPi, pH 7.4.
Reaction components are mixed well and 150 μL removed to quench/stop solution immediately for the zero-minute time point. Reactions are incubated at 37° C. for 10 minutes and then an additional 150 μL removed from incubation. Aliquots removed are combined with 300 μL ACN which contains 100 μM DMN as a UV standard for detection.
Quenched mixtures are centrifuged at 1500 rpm (˜500×g) in an Allegra X-12 centrifuge, SX4750 rotor (Beckman Coulter Inc., Fullerton, Calif.) for fifteen minutes to pellet denatured microsomes. A volume of 110 μl of supernatant extract, containing the mixture of parent compound and its metabolites, is then transferred to a separate 96-well plate for UV-LC/MS-MS analysis to determine the percent of parent compound that is remaining in the mixture.

CCR1 = target: T1, CCR1 (Homo sapiens, UniProt P32246); experiment: Human CCR1 THP-1 binding assay ([125I]MIP-1α competition); details: THP-1 cells
T1 construct: THP-1 monocytic leukemia cells are combined with 100 μg of LS WGA PS beads; endogenous in cells; host or cells: THP-1 monocytic leukemia cells
T1 sequence (P32246 1-355): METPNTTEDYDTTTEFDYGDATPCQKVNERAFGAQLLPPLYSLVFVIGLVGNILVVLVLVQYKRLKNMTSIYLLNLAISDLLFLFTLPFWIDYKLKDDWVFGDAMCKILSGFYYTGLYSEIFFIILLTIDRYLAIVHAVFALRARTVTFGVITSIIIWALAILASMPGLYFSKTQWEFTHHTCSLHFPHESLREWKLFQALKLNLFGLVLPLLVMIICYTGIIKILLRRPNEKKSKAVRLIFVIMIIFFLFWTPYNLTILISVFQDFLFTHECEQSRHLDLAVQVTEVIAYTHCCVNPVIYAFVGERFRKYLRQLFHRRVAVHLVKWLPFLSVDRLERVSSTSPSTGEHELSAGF
Protocol: For radioligand competition studies, a final concentration of 1×10^5 THP-1 monocytic leukemia cells are combined with 100 μg of LS WGA PS beads (Amersham, Cat.#: RPNQ 0260) in 40 μL of assay buffer (RPMI 1640 without phenol red, 50 mM HEPES, 5 mM MgCl2, 1 mM CaCl2, 0.1% BSA). The THP-1 cell/bead mixture was added to each well of a 384-well assay plate (PerkinElmer, Cat. #:6007899) containing test compound in 3-fold serial dilution, with final concentrations ranging from 8 μM to 0.14 nM. A final concentration of 0.1 nM [^125I]MIP-1α (PerkinElmer, Cat. # NEX298) in 20 μL assay buffer was added to the reaction. Unlabeled MIP-1α was added in excess to some wells to determine non-specific binding. Sealed assay plates were incubated at room temperature for 12 h then analyzed by LEADseeker™.
The competition data of the test compound over a range of concentrations is plotted as percentage inhibition of radioligand specifically bound in the absence of test compound (percent of total signal). After correcting for non-specific binding, IC50 values are determined. […] The Ki values are determined by application of the Cheng-Prusoff equation to the IC50 values, where Ki=IC50/(1+ligand concentration/Kd). […]

[2] = Human liver microsomal metabolism, Assay Conditions A; type: in vitro ADME; details: 0.5 μM compound, 10 minutes, 37° C.
Protocol: Test compound is received as a 3.5 mM stock solution in 100 percent DMSO. Compound is diluted to create a 50 μM acetonitrile (ACN) solution containing 1.4% DMSO, which is then used as a 100× stock for incubation with microsomes. Each compound is tested in duplicate separately in each of three species in the Metabolic Stability-Human, Rat, and Mouse assay suite or as individual species in the Metabolic Stability-Dog or Metabolic Stability-Monkey suites. Compound, NADPH and liver microsome solutions are combined for incubation in three steps:
152 μL of liver microsome suspension, protein concentration of 1.1 mg/mL in 100 mM NaPi, pH 7.4, 6.6 mM MgCl2 buffer, is pre-warmed at 37° C.
• 1) 1.7 μL of 50 μM compound (98.6% ACN, 1.4% DMSO) is added to the same tube and pre-incubated at 37° C. for 5 minutes. • 2) The reaction is initiated by the addition of 17 μL of pre-warmed 10 mM NADPH solution in 100 mM NaPi, pH 7.4. • 3) Reaction components are mixed well, and 75 μL are immediately transferred into 150 μl quench/stop solution (zero-time point, To). Reactions are incubated at 37° C. for 10 minutes and then an additional 75 μL aliquot is transferred into 150 μL quench solution. Acetonitrile containing 100 μM DMN (a UV standard for injection quality control), is used as the quench solution to terminate metabolic reactions. • 4) Quenched mixtures are centrifuged at 1500 rpm (˜500×g) in an Allegra X-12 centrifuge, SX4750 rotor (Beckman Coulter Inc., Fullerton, Calif.) for fifteen minutes to pellet denatured microsomes. A volume of 90 μL of supernatant extract, containing the mixture of parent compound and its metabolites, is then transferred to a separate 96-well plate for UV-LC/MS-MS analysis to determine the percent of parent compound that is remaining in the mixture.

| Compound | Human Liver Microsomal Metabolism % remaining (Assay Conditions B) ([1]; 3 μM compound, 10 minutes, 37° C.) | % of compound remaining in the human liver microsome metabolism assay ([1]; assay conditions not given) | Ki (CCR1) | Human Liver Microsomal Metabolism % remaining (Assay Conditions A) [2] |
| --- | --- | --- | --- | --- |
| CC(C)[C@@H](NC(=O)[C@@H]1CCC(F)(F)C1)C(=O)N1CC[C@](O)(c2ccc(Cl)cc2)[C@@](C)(O)C1 [Compound I, (R)—N—((R)-1-((3S,4S)-4-(4-chlorophenyl)-3,4-dihydroxy-3-methylpiperidin-1-yl)-3-methyl-1-oxobutan-2-yl)-3,3-difluorocyclopentanecarboxamide] | 96% (B) | 100% | 1.6 nM |  |
| CC(C)COC(=O)N[C@@H](C(=O)N1CC[C@](O)(c2ccc(Cl)cc2)C(C)(C)C1)C(C)C [Example 1083] |  |  | 2.6 nM | 13% (A) |
